Data as given in patent publication EP0421733B1, “Amphotericin B lipid complex” (THE LIPOSOME COMPANY, INC., priority 1989, dated 1991).
Read-outs that look alike come from different tables or passages of the source.

System: C. albicans SC 5314
Experiment: Single-dose intravenous treatment of systemic candidiasis in mice
Format: in vivo
Conditions: Candida albicans, SC5314, iv
Procedure: Female Swiss Webster mice were infected intraveneously with 5 x 10⁶ blastospores of C. albicans SC 5314 and treated one time with either ABLC or amphotericin B, five hours later. The amphotericin B was diluted in 5% dextrose for intravenous injection into the experimental mice. The ABLC formulation was also administered intravenously.

C[C@@H]1[C@H](O)[C@@H](C)/C=C/C=C/C=C/C=C/C=C/C=C/C=C/[C@H](O[C@@H]2O[C@H](C)[C@@H](O)[C@H](N)[C@@H]2O)C[C@@H]2O[C@](O)(C[C@@H](O)C[C@@H](O)[C@H](O)CC[C@@H](O)C[C@@H](O)CC(=O)O[C@H]1C)C[C@H](O)[C@H]2C(=O)O [Amphotericin B]
ED50 (5 h, read-out: ED₅₀(mg AMB/kg) Clearance): 0.7 mg/kg
ED50 (5 h, read-out: ED₅₀(mg AMB/kg) Survival): 0.46 mg/kg
ED50 (read-out: survival ED₅₀): 0.46 mg/kg
ED50 (single i.v. dose, infected mice, read-out: ED₅₀ based on kidney clearance): 0.7 mg/kg
